Reference: patent US11786534B2 (TAIHO PHARMACEUTICAL CO., LTD., priority 2019, dated 2023)
pIC50: −log10 of the molar value.

How the values were obtained:
[1] = biological target: Ba/F3-EGFR (L858R/T790M/C797S) (Homo sapiens, UniProt P00533, T790M/C797S/L858R, cells depend on it); assay: Growth inhibition of cell line expressing EGFR (L858R/T790M/C797S); assay type: cell-based, mouse; conditions: Test Example 4, Table 13; same procedures as Test Example 2; read-out: BaF3_EGFR (L858R/T790M/C797S) IC50 value
From the text: (§1) Test for inhibitory activity against the growth of cell lines expressing wild-type and mutated EGFRs (in vitro)
(§2) (1) Mouse cell line Ba/F3-EGFR (d746-750/T790M/C797S) transfected with and stably expressing EGFR (d746-750/T790M/C797S), mouse cell Ba/F3-EGFR (L858R/T790M/C797S) transfected with and stably expressing EGFR (L858R/T790M/C797S), and mouse cell line Ba/F3-EGFR (WT) transfected with and stably expressing wild-type EGFR were each suspended in RPMI-1640 cell culture medium (RPMI-1640, 10% FBS, 100 unit/ml penicillin, 0.1 mg/ml streptomycin). In the case of the mouse cell line Ba/F3-EGFR (WT), RPMI-1640 cell culture medium containing EGF at a final concentration of 50 ng/ml was used to suspend this cell line. It should be noted that the mouse cell line Ba/F3-EGFR (d746-750/T790M/C797S) transfected with and stably expressing EGFR (d746-750/T790M/C797S), the mouse cell line Ba/F3-EGFR (L858R/T790M/C797S) transfected with and stably expressing EGFR (L858R/T790M/C797S) and the mouse cell line Ba/F3-EGFR (WT) transfected with and stably expressing wild-type EGFR were prepared by using nucleotide sequences encoding the proteins of SEQ ID NOs: 1 and 2 in accordance with Test Example 1 in WO2018/079310, These cell suspensions were seeded in wells of 96-well flat -bottomed plates. The compounds of the present invention were dissolved in DMSO, and serial dilutions of these test compounds were prepared with DMSO (1000-fold of the final concentration). Each test compound solution in DMSO or DMSO alone was diluted with RPMI-1640 cell culture medium for each cell line, and this dilution was added to wells of the cell culture plate such that the final concentration of DMSO was 0.1%, followed by culture at 37° C. for 3 days in a 5% carbon dioxide gas-containing incubator. Before and after addition of each test compound solution in DMSO, the number of cells was counted using the CellTiter-Glo® system (Promega) on the basis of the protocol recommended by Promega.
(§3) In each cell line, the rate of cell growth inhibition was calculated according to the equation shown below in wells to which each test compound was added at different concentrations. Moreover, the inhibition rate at each concentration was plotted for each test compound, and the concentration of each test compound required to give 50% cell survival rate, i.e., IC50 (nM) was determined by curve fitting software XLfit (IDBS).
(§4) Cell survival rate (%)=T/C×100
(§5) T: emission intensity in a well cultured for 3 days after addition of a test compound solution
(§6) C: emission intensity in a well cultured for 3 days after addition of DMSO
(§7) In accordance with the same procedures as shown in Test Example 2, the compounds of the present invention were tested for their inhibitory activity against the growth of the cell hoes expressing wild-type and mutated EGFRs.

Ba/F3-EGFR (WT) = Ba/F3-EGFR (WT) (Homo sapiens, UniProt P00533); assay: Growth inhibition of cell line expressing wild-type EGFR; assay type: cell-based, mouse; conditions: Test Example 4, Table 13; same procedures as Test Example 2; read-out: BaF3_EGFR (WT) IC50 value
From the text: as §1, §2, §3, §4, §5, §6, §7

[2] = biological target: Ba/F3-EGFR (d746-750/T790M/C797S) (Homo sapiens, UniProt P00533, DEL746-750/T790M/C797S, cells depend on it); assay: Growth inhibition of cell line expressing EGFR (d746-750/T790M/C797S); assay type: cell-based, mouse; conditions: Test Example 4, Table 13; same procedures as Test Example 2; read-out: BaF3_EGFR (d746-750/T790M/C797S) IC50 value
From the text: as §1, §2, §3, §4, §5, §6, §7

[3] = biological target: T1, human EGFR (d746-750/C797S) (Homo sapiens, UniProt P00533, C797S/DEL746-750); assay: Inhibitory activity against EGFR (d746-750/C797S) kinase; assay type: biochemical
T1 construct: purchased SignalChem
Procedure, shortened: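 Recombinant human EGFR d746-750/C797S in 13.5 mM Tris pH 7.5 with 2 mM DTT and 0.009% Tween-20. Reaction ran 60 min with 14 μM ATP, 20 mM MgCl2 and 12.5 mM MnCl2, stopped by 40 mM EDTA. IC50 in nM.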

human EGFR (L858R/C797S) = biological target: T2, human EGFR (L858R/C797S) (Homo sapiens, UniProt P00533, C797S/L858R); assay: Inhibitory activity against EGFR (L858R/C797S) kinase; assay type: biochemical
T2 construct: purchased SignalChem
Procedure, shortened: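 Purified recombinant human EGFR (C797S/L858R) kinase, final ATP 4 μM, 90-minute kinase reaction, otherwise per the EGFR (d746-750/C797S) protocol. IC50 (nM) determined from inhibition data.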

human EGFR (WT) = biological target: T3, human EGFR (WT) (Homo sapiens, UniProt P00533); assay: Inhibitory activity against EGFR (WT) kinase; assay type: biochemical
T3 construct: purchased Carna Biosciences Inc., Japan
Procedure, shortened: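 Purified recombinant human wild-type EGFR kinase, with ATP at 1.5 μM final. Compound inhibition of kinase activity read out and fitted to give IC50 (nM).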

[4] = biological target: T4, human EGFR (L858R/T790M/C797S) (Homo sapiens, UniProt P00533, C797S/L858R/T790M); assay: Inhibitory activity against EGFR (L858R/T790M/C797S) kinase; assay type: biochemical
T4 construct: made in house; host or cells: Sf9 insect cells, baculovirus
Procedure, shortened: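 GST-tagged cytoplasmic domain of human EGFR L858R/T790M/C797S, expressed in Sf9 insect cells via baculovirus and glutathione-purified. Kinase reaction run at 0.5 μM ATP final; IC50 (nM) determined per compound.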

[5] = biological target: T5, human EGFR (d746-750/T790M/C797S) (Homo sapiens, UniProt P00533, C797S/DEL746-750/T790M); assay: Inhibitory activity against EGFR (d746-750/T790M/C797S) kinase; assay type: biochemical
T5 construct: made in house; host or cells: Sf9 insect cells, baculovirus
Procedure, shortened: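 GST-fused cytoplasmic domain of human EGFR d746-750/T790M/C797S (Sf9-expressed) was incubated with 250 nM biotinylated peptide, 6 μM ATP, 10 mM MgCl2 and 10 mM MnCl2 (2.5% DMSO) for 120 min at 25 °C. After an EDTA stop, phosphotyrosine was detected by Eu-PT66/SureLight APC-SA TR-FRET (665/620 nm, excitation 337 nm). Background wells received EDTA before enzyme.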

[6] = Test Example 1, Table 4, ATP 14 μM, 60 minutes
[7] = Test Example 1, Table 5, ATP 4 μM, 90 minutes
[8] = Test Example 1, Table 6, ATP 1.5 μM
[9] = Test Example 1, Table 3, ATP 0.5 μM
[10] = Test Example 1, Table 2, ATP 6 μM, 25° C., 120 minutes
[11] = Test Example 3, Table 10; same procedures as 3) in Test Example 1
[12] = Test Example 3, Table 11; same procedures as 4) in Test Example 1
[13] = Test Example 3, Table 12; same procedures as 5) in Test Example 1
[14] = Test Example 3, Table 9; same procedures as 2) in Test Example 1
[15] = Test Example 3, Table 8; same procedures as 1) in Test Example 1

Molecule	GI50 [1] [nM]	GI50 (Ba/F3-EGFR (WT)) [nM]	GI50 [2] [nM]	pIC50 [3, 6]	pIC50 (human EGFR (L858R/C797S); [7])	pIC50 (human EGFR (WT); [8])	pIC50 [4, 9]	pIC50 [5, 10]	pIC50 [3, 11]	pIC50 (human EGFR (L858R/C797S); [12])	pIC50 (human EGFR (WT); [13])	pIC50 [4, 14]	pIC50 [5, 15]
C#Cc1c(-c2cnc3ccccc3c2)c2c(N)ncnc2n1C12CCC(NC(=O)c3cnco3)(CC1)C2 [Example 47]	382	2060	33										
N-4-(4-Amino-6-ethynyl-5-(quinolin-3-yl)-7H-pyrrolo[2,3-d]pyrimidin-7-yl)bicyclo -[2.2.1]heptane-1-yl)oxazole-5-carboxamide [Example 47]				9.48	9.44	9.39	9.23	> 9.52					
C#Cc1c(-c2cnc3ccccc3c2)c2c(N)ncnc2n1C12CCC(NC(=O)c3ccc(P(C)(C)=O)cn3)(CC1)C2 [Example 70, N-(4-(4-Amino-6-ethynyl-5-(quinolin-3-yl)-7H-pyrrolo[2,3-d]pyrimidin-7-yl)bicyclo-[2.2.1]heptan-1-yl)-5-(dimethylphosphoryl)picolinamide]									9.15	8.80	9.03	> 9.52	> 9.52
C#Cc1c(-c2cnc3ccccc3c2)c2c(N)ncnc2n1C12CCC(NC(=O)c3cnc(CN4CCOCC4)cn3)(CC1)C2 [Example 69, N-(4-(4-Amino-6-ethynyl-5-(quinolin-3-yl)-7H-pyrrolo[2,3-d]pyrimidin-7-yl)bicyclo-[2.2.1]heptan-1-yl)-5-(morpholinomethyl)pyrazine-2-carboxamide]									> 9.52	9.23	9.13	> 9.52	> 9.52
C#Cc1c(-c2cnc3ccccc3c2)c2c(N)ncnc2n1C12CCC(NC(=O)c3cncc(C#N)c3)(CC1)C2 [Example 34, N-(4-(4-Amino-6-ethynyl-5-(quinolin-3-yl)-7H-pyrrolo[2,3-d]pyrimidin-7-yl)-bicyclo-[2.2.1]heptan-1-yl)-5-cyanonicotinamide]				9.34	9.35	9.08	> 9.52	> 9.52					
C#Cc1c(-c2cnc3ccccc3c2)c2c(N)ncnc2n1C12CCC(NC(=O)c3cnc4cnccn34)(CC1)C2 [Example 65]									9.40	> 9.52	> 9.52	> 9.52	> 9.52
C#Cc1c(-c2cnc3ccccc3c2)c2c(N)ncnc2n1C12CCC(NC(=O)NCC)(CC1)C2 [Example 50]				9.01	8.70	8.92	9.17	> 9.52					

Second part, the molecule after the results:

GI50 [1] [nM]	GI50 (Ba/F3-EGFR (WT)) [nM]	GI50 [2] [nM]	pIC50 [3, 6]	pIC50 (human EGFR (L858R/C797S); [7])	pIC50 (human EGFR (WT); [8])	pIC50 [4, 9]	pIC50 [5, 10]	pIC50 [3, 11]	pIC50 (human EGFR (L858R/C797S); [12])	pIC50 (human EGFR (WT); [13])	pIC50 [4, 14]	pIC50 [5, 15]	Molecule
			9.32	9.37	9.51	> 9.52	> 9.52						C#Cc1c(-c2cnc3ccccc3c2)c2c(N)ncnc2n1C12CCC(NC(=O)c3nccn4ccnc34)(CC1)C2 [Example 42]
			8.80	8.62	7.96	9.16	> 9.52						C#Cc1c(-c2cnc3ccccc3c2)c2c(N)ncnc2n1C12CCC(N(C)C)(CC1)C2 [Example 11, 7-(4-(Dimethylamino)bicyclo[2.2.1]heptan-1-yl)-6-ethynyl-5-(quinolin-3-yl)-7H -pyrrolo[2,3-d]pyrimidine-4-amine]
			9.21	9.02	8.96	9.25	> 9.52						C#Cc1c(-c2cnc3ccccc3c2)c2c(N)ncnc2n1C12CCC(CO)(CC1)C2 [Example 10]
			9.10	9.00	8.82	9.28	> 9.52						C#Cc1c(-c2cnc3ccccc3c2)c2c(N)ncnc2n1C12CCC(NC(=O)c3cnc(Cl)cn3)(CC1)C2 [Example 15]
								9.08	8.77	8.66	9.33	9.43	C#Cc1c(-c2cnc3ccccc3c2)c2c(N)ncnc2n1C12CCC(NC(=O)OCc3cnccn3)(CC1)C2 [Example 59, Pyrazin-2-ylmethyl (4-(4-amino-6-ethynyl-5-(quinolin-3-yl)-7H-pyrrolo[2,3-d]-pyrimidin-7-yl)bicyclo[2.2.1]heptane-1-yl)carbamate]
								9.52	9.43	9.46	> 9.52	> 9.52	C#Cc1c(-c2cnc3ccccc3c2)c2c(N)ncnc2n1C12CCC(NC(=O)c3cnc(CNC)cn3)(CC1)C2 [Example 67, N-(4-(4-Amino-6-ethynyl-5-(quinolin-3-yl)-7H-pyrrolo[2,3-d]pyrimidin-7-yl)bicyclo-[2.2.1]heptan-1-yl)-5-((methylamino)methyl)pyrazine-2-carboxamide]
								9.07	9.49	9.39	> 9.52	> 9.52	C#Cc1c(-c2cnc3ccccc3c2)c2c(N)ncnc2n1C12CCC(NC(=O)c3cnc4ccccn34)(CC1)C2 [Example 64, N-(4-(4-Amino-6-ethynyl-5-(quinolin-3-yl)-7H-pyrrolo[2,3-d]pyrimidin-7-yl)bicyclo-[2.2.1]heptan-1-yl)imidazo[1,2-a]pyridine-3-carboxamide]
